# What was measured:
# Assay type in all cases: functional
# Staphylococcus aureus [1] = assay: Antibacterial activity against erythromycin-susceptible Staphylococcus aureus ATCC 25923
# Streptococcus pneumoniae [2] = assay: Antibacterial activity against erythromycin-susceptible Streptococcus pneumoniae ATCC 49619
# Staphylococcus aureus [3] = assay: Antibacterial activity against methicillin-susceptible Staphylococcus aureus ATCC 29213
# Streptococcus pyogenes [4] = assay: Antibacterial activity against erythromycin-susceptible Streptococcus pyogenes isolate S2
# Streptococcus pyogenes [5] = assay: Antibacterial activity against erythromycin-resistant Streptococcus pyogenes isolate R2
# Streptococcus pneumoniae [6] = assay: Antibacterial activity against erythromycin-resistant Streptococcus pneumoniae B1 expressing ermB gene
# Streptococcus pneumoniae [7] = assay: Antibacterial activity against erythromycin-resistant Streptococcus pneumoniae A22072 expressing mefA gene
# Streptococcus pneumoniae [8] = assay: Antibacterial activity against erythromycin-resistant Streptococcus pneumoniae AB11 expressing ermB/mefA gene
# Escherichia coli = assay: Antibacterial activity against Escherichia coli ATCC 25922
# Pseudomonas aeruginosa = assay: Antibacterial activity against Pseudomonas aeruginosa ATCC 27853
SMILES,MIC (Staphylococcus aureus [1]) [µg/mL],MIC (Streptococcus pneumoniae [2]) [µg/mL],MIC (Staphylococcus aureus [3]) [µg/mL],MIC (Streptococcus pyogenes [4]) [µg/mL],MIC (Streptococcus pyogenes [5]) [µg/mL],MIC (Streptococcus pneumoniae [6]) [µg/mL],MIC (Streptococcus pneumoniae [7]) [µg/mL],MIC (Streptococcus pneumoniae [8]) [µg/mL],MIC (Escherichia coli) [µg/mL],MIC (Pseudomonas aeruginosa) [µg/mL]
CC[C@H]1OC(=O)[C@H](C)[C@@H](O[C@H]2C[C@@](C)(OC)[C@@H](OC(=O)NCc3cn(Cc4c(Cl)cccc4Cl)nn3)[C@H](C)O2)[C@H](C)[C@@H](O[C@@H]2O[C@H](C)C[C@H](N(C)C)[C@H]2O)[C@](C)(O)C[C@@H](C)CN(C)[C@H](C)[C@@H](OC(=O)NCc2ccccc2)[C@]1(C)O,0.25,0.125,16,< 0.002,64,0.25,0.25,0.25,32,32
CC[C@H]1OC(=O)[C@H](C)[C@@H](O[C@H]2C[C@@](C)(OC)[C@@H](OC(=O)NCc3cn(Cc4ccc(Cl)cc4Cl)nn3)[C@H](C)O2)[C@H](C)[C@@H](O[C@@H]2O[C@H](C)C[C@H](N(C)C)[C@H]2O)[C@](C)(O)C[C@@H](C)CN(C)[C@H](C)[C@H]2OC(=O)O[C@@]21C,4,1,32,0.125,32,4,1,2,128,64
CC[C@H]1OC(=O)[C@H](C)[C@@H](O[C@H]2C[C@@](C)(OC)[C@@H](OC(=O)NCc3cn(C4CCCCC4)nn3)[C@H](C)O2)[C@H](C)[C@@H](O[C@@H]2O[C@H](C)C[C@H](N(C)C)[C@H]2O)[C@](C)(O)C[C@@H](C)CN(C)[C@H](C)[C@H]2OC(=O)O[C@@]21C,16,1,64,0.25,32,8,1,4,128,64
CC[C@H]1OC(=O)[C@H](C)[C@@H](O[C@H]2C[C@@](C)(OC)[C@@H](OC(=O)NCc3cn(Cc4cccc(F)c4)nn3)[C@H](C)O2)[C@H](C)[C@@H](O[C@@H]2O[C@H](C)C[C@H](N(C)C)[C@H]2O)[C@](C)(O)C[C@@H](C)CN(C)[C@H](C)[C@H]2OC(=O)O[C@@]21C,4,1,32,0.125,128,4,4,0.5,128,64
CC[C@H]1OC(=O)[C@H](C)[C@@H](O[C@H]2C[C@@](C)(OC)[C@@H](OC(=O)NCc3cn(Cc4ccc([N+](=O)[O-])cc4)nn3)[C@H](C)O2)[C@H](C)[C@@H](O[C@@H]2O[C@H](C)C[C@H](N(C)C)[C@H]2O)[C@](C)(O)C[C@@H](C)CN(C)[C@H](C)[C@H]2OC(=O)O[C@@]21C,4,1,32,0.008,128,4,4,0.5,64,64
CC[C@H]1OC(=O)[C@H](C)[C@@H](O[C@H]2C[C@@](C)(OC)[C@@H](OC(=O)NCc3cn(Cc4ccc(Br)cc4)nn3)[C@H](C)O2)[C@H](C)[C@@H](O[C@@H]2O[C@H](C)C[C@H](N(C)C)[C@H]2O)[C@](C)(O)C[C@@H](C)CN(C)[C@H](C)[C@H]2OC(=O)O[C@@]21C,2,1,32,0.06,32,4,1,1,128,64
CC[C@H]1OC(=O)[C@H](C)[C@@H](O[C@H]2C[C@@](C)(OC)[C@@H](OC(=O)NCc3cn(Cc4ccccc4Cl)nn3)[C@H](C)O2)[C@H](C)[C@@H](O[C@@H]2O[C@H](C)C[C@H](N(C)C)[C@H]2O)[C@](C)(O)C[C@@H](C)CN(C)[C@H](C)[C@H]2OC(=O)O[C@@]21C,4,1,32,0.06,16,8,2,4,128,64
CC[C@H]1OC(=O)[C@H](C)[C@@H](O[C@H]2C[C@@](C)(OC)[C@@H](OC(=O)NCc3cn(Cc4ccccc4)nn3)[C@H](C)O2)[C@H](C)[C@@H](O[C@@H]2O[C@H](C)C[C@H](N(C)C)[C@H]2O)[C@](C)(O)C[C@@H](C)CN(C)[C@H](C)[C@@H](OC(=O)NCc2ccccc2)[C@]1(C)O,0.016,0.125,16,< 0.002,32,0.25,0.25,0.25,16,32
CC[C@H]1OC(=O)[C@H](C)[C@@H](O[C@H]2C[C@@](C)(OC)[C@@H](OC(=O)NCc3cn(Cc4ccc(Cl)cc4)nn3)[C@H](C)O2)[C@H](C)[C@@H](O[C@@H]2O[C@H](C)C[C@H](N(C)C)[C@H]2O)[C@](C)(O)C[C@@H](C)CN(C)[C@H](C)[C@@H](OC(=O)NCc2ccccc2)[C@]1(C)O,0.25,0.25,16,< 0.002,32,0.25,0.125,0.25,32,32

# Source: ChEMBL document CHEMBL4052714, “Synthesis and antibacterial activity of novel 4″-O-(1-aralkyl-1,2,3-triazol-4-methyl-carbamoyl) azithromycin analogs” (2017)
